{"source": "patent US20250361219A1", "about": "“SYSTEMS AND METHODS FOR SEPARATION OF CHEMICAL SPECIES, SUCH AS CANNABINOIDS, USING MULTIPLE LIQUID PHASES” (priority 2022, published 2025)", "key": {"[1]": {"assay": "Batch extraction of rac-propranolol with dibutyl L-(+)-tartrate / boric acid, dichloromethane/water", "type": "physicochemical", "details": "for distribution coefficient: dichloromethane with dibutyl-L-tartrate / water with boric acid", "procedure": "One mobile phase was used—a 54/46 v/v methanol/water solution containing 110 mM sodium acetate adjusted to a pH of 6 using glacial acetic acid, 215 mM boric acid, and 285 mM dibutyl L-(+)-tartrate. The flow rate was 0.23 mL/min. The column was heated to 25° C. and the detection was monitored at a wavelength of 275 nm. Samples were diluted 20× in 54/46 v/v methanol/water solution containing 110 mM sodium acetate buffered to a pH of 6 with glacial acetic acid and the injection volume was 10 μL.\nBatch extraction experiments were performed as follows. 2 mL of 1 mg/mL rac-Propranolol in water containing 152.1 mM boric acid was mixed with 2 mL of 152.1 mM dibutyl L-(+)-tartrate in dichloromethane. The solution was vigorously shaken for approximately 2 minutes and allowed to fully settle. 20 μL of each phase were diluted with 380 μL of 110 mM sodium acetate in a 54/46 methanol/water solution buffered to a pH of 6 using glacial acetic acid and the solute concentrations were determined by HPLC."}, "[2]": {"details": "1,2-Dichloroethane/water (literature), 45x molar excess dibutyl-L-tartrate and boric acid; listed as R/S-PRP; cited from earlier work"}, "[3]": {"details": "Current platform (10/5/5 DCM/methanol/water ratio)", "procedure": "Batch extraction experiments were performed as follows. 1 mg of each solute was added to 2 mL of dichloromethane, 1 mL of water, and 1 mL of methanol. The solution was vigorously shaken for around 2 minutes and allowed to fully settle. 100 μL of each phase were diluted with 900 μL of methanol and the solute concentrations were determined by HPLC."}, "[4]": {"details": "Literature (10/6/4 DCM/methanol/water ratio); cited from earlier work"}, "[5]": {"assay": "Partition coefficients of delta-9- and delta-8-tetrahydrocannabinol in liquid mixtures (Examples 1-9)", "type": "physicochemical", "method": "The cannabinoid sample contained both delta-9-tetrahydrocannabinol with delta-8-tetrahydrocannabinol. The liquid mixtures included an organic phase as the first liquid phase and a water soluble phase as the second liquid phase. The organic phase and the water soluble phase were in 1:1 volume ratio for all analyses. Various hydrocarbons were evaluated as the organic phase. These hydrocarbons included hexane, heptane, cyclohexane, pentane, 1-hexene, toluene, benzene, 1-octadecene, and dodecane. Various amide based solvents were evaluated as the water soluble phase. These amide based solvents included formamide (F), dimethyl formamide (DMF), methyl formamide (MF), dibutyl formamide (DBF).\nExample 9. A mixture of formamide (F) and dimethyl formamide (DMF) and dibutyl formamide (DBF) at a volume ratio of 1:3:1 (20% F and 60% DMF and 20% DBF) was used as the water soluble phase. Hexane was used as the organic phase. […] The partition coefficients for each component (e.g., delta-9-tetrahydrocannabinol, delta-8-tetrahydrocannabinol) in the liquid mixture were determined by calculating a ratio of the concentration of the component in the water soluble phase over concentration of the component in the organic phase."}}, "note": "Where two headings read alike, the source gives them in different places."}
{"compound": "CC(C)NC[C@@H](O)COc1cccc2ccccc12", "note": "[R-PRP, R-propranolol]", "values": [{"measurement": "distribution coefficient", "setting": "[1]", "value": 0.12}]}
{"compound": "CC(C)NCC(O)COc1cccc2ccccc12", "note": "(centres unmarked) [R/S-propranolol]", "values": [{"measurement": "Selectivity between enantiomers", "setting": "[1]; Dichloromethane/water (experiment), 45x molar excess dibutyl-L-tartrate and boric acid", "value": "2.58 ± 0.07"}, {"measurement": "Selectivity between enantiomers", "setting": "[2]", "value": "2.54±0.13"}]}
{"compound": "CC(C)NCC(O)COc1cccc2ccccc12", "note": "(centres unmarked) [S-PRP]", "values": [{"measurement": "distribution coefficient", "setting": "[1]", "value": 0.30}]}
{"compound": "COc1cc(C=O)cc(OC)c1O", "note": "[Syringaldehyde, syringaldehyde]", "values": [{"measurement": "αx/pHBA (selectivity)", "setting": "[3]", "value": 25.5}, {"measurement": "αx/pHBA (selectivity)", "setting": "[4]", "value": 17.8}]}
{"compound": "CCCCCc1cc(O)c2c(c1)OC(C)(C)[C@@H]1CCC(C)=C[C@@H]21", "note": "[delta-9-tetrahydrocannabinol]", "values": [{"measurement": "Kd9,THC/Kd8,THC", "setting": "[5]; Example 1: F:DMF (9:16) / Hexane", "value": 1.47}, {"measurement": "Kd9,THC/Kd8,THC", "setting": "[5]; Example 2: F:DMF (9:16) / Heptane", "value": 1.45}, {"measurement": "Kd9,THC/Kd8,THC", "setting": "[5]; Example 3: F:DMF (9:16) / Cyclohexane", "value": 1.48}, {"measurement": "Kd9,THC/Kd8,THC", "setting": "[5]; Example 4: F:DMF (9:16) / Pentane", "value": 1.36}, {"measurement": "Kd9,THC/Kd8,THC", "setting": "[5]; Example 5: F:DMF (9:16) / 1-Hexene", "value": 1.37}, {"measurement": "Kd9,THC/Kd8,THC", "setting": "[5]; Example 6: F:DMF (1:1) / Dodecane", "value": 1.39}, {"measurement": "Kd9,THC/Kd8,THC", "setting": "[5]; Example 7: F:MF (1:1) / Hexane", "value": 1.20}, {"measurement": "Kd9,THC/Kd8,THC", "setting": "[5]; Example 8: F:MF (2:3) / Hexane", "value": 1.23}, {"measurement": "Kd9,THC/Kd8,THC", "setting": "[5]; Example 9: F:DMF:DBF (1:3:1) / Hexane", "value": 1.39}]}
{"compound": "O=C(O)c1ccc(O)cc1", "note": "[pHBA, para-hydroxybenzoic acid]", "values": [{"measurement": "αx/pHBA (selectivity)", "setting": "[3]", "value": 1.00}, {"measurement": "αx/pHBA (selectivity)", "setting": "[4]", "value": 1.00}]}
